The text below walks through data of patent US20220175931A1, “OSMOTIC PRESSURE REGULATOR FOR PERITONEAL DIALYSATE CONTAINING D-ALLOSE AND/OR D-ALLULOSE” (NATIONAL UNIVERSITY CORPORATION KAGAWA UNIVERSITY, priority 2019, published 2022).

≈ marks a conversion by molar mass, not a printed value. Entries after “also recorded” stand apart in the source; their conditions may differ. Read-outs that look alike come from different tables or passages of the source. Some results are limits rather than exact numbers.

The test system of one test is E. coli. Nature of the test: MIC test, agar plate dilution method. The class given is cell-based, Escherichia coli. The protocol:
(§1) In accordance with the agar plate dilution method of the Japanese Society of Chemotherapy (1981), the minimum inhibitory concentration of a sample was determined.
(§2) Agar plates containing a sample at predetermined concentrations were smeared with a test bacterial suspension and were incubated, and then the minimum concentration at which bacterial growth was inhibited was determined as the minimum inhibitory concentration.
(§3) A 10-fold diluted solution of a sample was prepared with purified water and was added to an agar medium at a 1/10 volume.
(§4) From the upper limit concentration, the concentration was determined by serial 2-fold dilution to about 100 μg/ml.
(§5) (1) A 70% solution was prepared (14 g was diluted in a 20-ml measuring flask).
(§6) (2) The 70% solution was diluted by 2-fold dilution. Seven to eight steps.
(§7) (3) A 1/9 volume of each solution was added to an agar medium, and the mixture was poured in a petri dish and solidified (the sample concentration was 7% or more in the agar).
(§8) A liquid culture medium containing bacteria was incubated for 16 to 20 hours, and a prepared culture medium having a bacterial concentration of about 10^6/ml was used.

A further test concerns Staphylococcus aureus. Nature of the test: MIC test, agar plate dilution method. Type of test: cell-based, Staphylococcus aureus subsp. (MSSA). On the procedure: as §1, §2, §3, §4, §5, §6, §7, §8
The next test deals with Enterococci. Nature of the test: MIC test, agar plate dilution method. Type of test: cell-based, Enterococcus faecalis. The protocol:
as §1, §2, §3, §4, §5, §6, §7, §8

In the next test the test system is Corynebacterium. Description: MIC test, agar plate dilution method. The class given is cell-based, Corynebacterium striatum. The protocol:
as §1, §2, §3, §4, §5, §6, §7, §8

For the next test, the system named is MRSA. Nature of the test: MIC test, agar plate dilution method. The class given is cell-based, Staphylococcus aureus (MRSA). The protocol:
as §1, §2, §3, §4, §5, §6, §7, §8

For test [1], the system named is Staphylococcus epidermidis. Description: MIC test, agar plate dilution method. Type of test: cell-based. The protocol:
as §1, §2, §3, §4, §5, §6, §7, §8

In a further test the test system is Pseudomonas aeruginosa. Description: MIC test, agar plate dilution method. Type of test: cell-based. On the procedure:
as §1, §2, §3, §4, §5, §6, §7, §8

In another test the test system is test bacteria. Nature of the test: MIC test, summary statements for the test bacteria as a whole. The class given is cell-based. On the procedure: as §1, §2
Drug concentration 128 μg/ml grown bacteria A+ B− C−
Drug concentration 64 μg/ml grown bacteria A+ B+ C−
Drug concentration 32 μg/ml grown bacteria A+ B+ C+

The subject of another test is male SD rats. Description: Blood glucose level after intraperitoneal administration of D-allulose dialysate, normal rats, Test Example 3. The class given is in vivo, rat. The settings on record: PDF-based, vs control group. An excerpt: The number of dialysis patients due to end-stage renal failure has been increasing; diabetic nephropathy is the main basic disease of end-stage renal failure; peritoneal dialysis patients can work during the day and has high QOL; peritoneal dialysis uses an osmotic pressure difference by glucose to remove water and toxins; and glucose in a peritoneal dialysate is absorbed through the peritoneum into the body to increase the blood glucose level, and this may worsen prognosis of a dialysis patient with diabetes. Considering the above circumstances, Kagawa University is only the organization capable of producing all rare sugars in the world and can research the rare sugar optimum for an intended dialysate.
The test example of D-allulose includes a substitution example and an addition example. In the substitution example, D-allose in FIG. 7 was substituted with D-allulose.
To male SD rats, a control solution as a solution in which a peritoneal dialysis fluid (PDF) was mixed with glucose, a 10% substitution solution as a solution in which 10% (by weight) of glucose to be mixed was substituted with D-allulose, or a 10% load solution as a solution in which D-allulose was added to the control solution in an amount corresponding to 10% by weight of glucose was intraperitoneally administered in the same volume, and blood glucose levels were determined over time.

Test [2] has as its system diabetic model rats (SDT fatty rats). Nature of the test: Blood glucose level after intraperitoneal administration of peritoneal dialysate, diabetic model rats, Test Example 1. Type of test: in vivo, rat. On the procedure:
As shown in the protocol in FIG. 4, 12- to 13-week-old male SDT fatty rats (a weight of 360 to 460 g) as diabetic model rats were fasted for 24 hours, then the weights and fasting blood glucose levels were determined, and the rats were randomly separated into two groups. As the administration solutions, a solution containing only glucose at a concentration of 4%, a solution having a sugar concentration of 4% in which D-allose was contained at 10% and glucose was contained at 90% were prepared, and each osmotic pressure of the two solutions was determined.
The diabetic model rats had more weights and higher fasting blood glucose levels than those of the normal rats. Blood samples were difficult to collect from the tails of the diabetic rats and thus were collected from the jugular vein, and blood glucose levels were determined by using the same blood glucose meter as above. The model rats had diabetes, and thus the blood glucose level increase was slow as compared with the normal rats.

The test system is the same in test [3]. Nature of the test: Blood glucose level after intraperitoneal administration of PDF-based dialysate, diabetic model rats, Test Example 2. The class given is in vivo, rat. To be noted: PDF-based solutions. The protocol: As shown in the protocol in FIG. 9, 35- to 42-week-old male SDT fatty rats (a weight of 380 to 490 g) as diabetic model rats were fasted for 24 hours, then the weights and fasting blood glucose levels were determined, and the rats were randomly separated into two groups. As the administration solutions, the original solution was changed to PDF, and a solution containing only glucose as the sugar at a concentration of 4%, a solution having a sugar concentration of 4% in which D-allose was contained at 10% and glucose was contained at 90% were prepared, and each osmotic pressure of the two solutions was determined.
FIG. 10 show the test result of blood glucose level of the two groups of a group of the solution containing only glucose at a concentration of 4% and a group of the solution having a sugar concentration of 4% in which D-allose was contained at 10% and glucose was contained at 90%.
The diabetic model rats had more weights and higher fasting blood glucose levels than those of the normal rats. Blood samples were difficult to collect from the tails of the diabetic rats and thus were collected from the jugular vein, and the blood glucose levels were determined by using the same blood glucose meter as above. The model rats had diabetes, and thus the blood glucose level increase was slow as compared with the normal rats.

The test system of test [4] is normal rats (SD rats). Nature of the test: Blood glucose level after intraperitoneal administration of peritoneal dialysate, normal rat models, Test Example 1. The class given is in vivo. On the procedure: As shown in the protocol in FIG. 1, normal rats (6-week-old male SD rats, a weight of 155 to 170 g/body) were fasted for 24 hours, then the weights and fasting blood glucose levels were determined, and the rats were randomly separated into four groups.
As the administration solutions, a solution containing only glucose at a concentration of 4%, a solution having a sugar concentration of 4% in which D-allose was contained at 5% and glucose was contained at 95%, a solution having a sugar concentration of 4% in which D-allose was contained at 10% and glucose was contained at 90%, and a solution having a sugar concentration of 4% in which D-allose was contained at 25% were prepared, and each osmotic pressure of the four solutions was determined.
(§9) For the normal rats, blood samples were collected from the tail veins, and the blood glucose (blood sugar) levels were determined by using a commercially available blood glucose meter.
The results were subjected to Tukey-Kramer test by using an analysis software, JMP, and no significant difference was observed.

Test [5] relates to normal rats (SD rats). Nature of the test: Blood glucose level after intraperitoneal administration of PDF-based dialysate, normal rat models, Test Example 2. The class given is in vivo. To be noted: PDF-based solutions. On the procedure:
Next, a peritoneal dialysis fluid (PDF) was prepared, solutions containing glucose in a constant total amount of (0.432 g) were prepared, and D-allose was added to the solution at a predetermined ratio to give the following two peritoneal dialysates having a sugar concentration of 4% by weight and an osmotic pressure of 500 mOsm/L.
As shown in the protocol in FIG. 7, normal rats (6-week-old male SD rats, a weight of 155 to 175 g/body) were fasted for 24 hours, then the weights and fasting blood glucose levels were determined, and the rats were randomly separated into two groups. As the administration solutions, a solution containing only glucose at a concentration of 4% and a solution having a sugar concentration of 4% in which D-allose was contained at 10% and glucose was contained at 90% were prepared, and each osmotic pressure was determined.
as §9
FIG. 8 show the test result of blood glucose level of the two groups of a group of the solution containing only glucose at a concentration of 4% and a group of the solution having a sugar concentration of 4% in which D-allose was contained at 10% and glucose was contained at 90%.

Where [6] appears, read: Escherichia coli, read-out: MIC.
[7] abbreviates: Enterococcus faecalis, read-out: MIC.
[8] abbreviates: Staphylococcus aureus, read-out: MIC.
[9] abbreviates: summary of results, drug concentration 128, 64, 32 μg/ml, bacterium not named.
[10] abbreviates: intraperitoneal, 0, 2, 4, and 6 hours.

Consider `O=C[C@H](O)[C@@H](O)[C@H](O)[C@H](O)CO` [Sample 1), D-glucose], for which the MIC (with E. coli (setting [6]); in the test with Staphylococcus aureus (read-out: MIC); in the test on Enterococci (setting [7]); in the test with Corynebacterium (read-out: MIC); in the test on MRSA (setting [8]); in test [1] (read-out: MIC)) was over 70 mg/mL throughout. Moreover, the MIC in the test with Pseudomonas aeruginosa (read-out: MIC) was over 70 mg/mL.

Consider `O=C(CO)[C@@H](O)[C@H](O)[C@H](O)CO` [Sample 2), D-Fructose], for which the MIC (in the test on E. coli (setting [6]); with Staphylococcus aureus (read-out: MIC); in the test with Enterococci (setting [7]); in the test on Corynebacterium (read-out: MIC); with MRSA (setting [8]); in [1] (read-out: MIC)) was over 70 mg/mL each time. In addition, the MIC in the test on Pseudomonas aeruginosa (read-out: MIC) was over 70 mg/mL.

For `O=C(CO)[C@H](O)[C@H](O)[C@H](O)CO` [Sample 3), D-allulose], the minimal inhibitory concentration (MIC) against E. coli is over 70 mg/mL; against Staphylococcus aureus it was over 70 mg/mL; against Enterococci, over 70 mg/mL; in the test with test bacteria (setting [9]), over 0.128 mg/mL; against Corynebacterium it was over 70 mg/mL; against MRSA, over 70 mg/mL. In addition, the MIC (in [1]; against Pseudomonas aeruginosa) was over 70 mg/mL each time. For the same molecule, the “blood glucose level increase (BS)” value with male SD rats is given as “significantly suppressed”.

As to `O=C(CO)[C@@H](O)[C@@H](O)[C@@H](O)CO` [Sample 4), L-allulose], the MIC was over 70 mg/mL against E. coli; over 70 mg/mL with Staphylococcus aureus; over 70 mg/mL with Enterococci; 0.128 mg/mL (≈ 0.71 mM) against test bacteria (setting [9]); over 70 mg/mL in the test with Corynebacterium; over 70 mg/mL with MRSA. The MIC (in [1]; in the test with Pseudomonas aeruginosa) was over 70 mg/mL in each case.

`O=C[C@H](O)[C@H](O)[C@H](O)[C@H](O)CO` [Sample 5), D-allose]: the minimal inhibitory concentration (MIC) was over 70 mg/mL in the test on E. coli (setting [6]); over 70 mg/mL with Staphylococcus aureus (read-out: MIC); over 70 mg/mL in the test with Enterococci (setting [7]); 0.064 mg/mL (≈ 0.355 mM) against test bacteria; over 70 mg/mL in the test with Corynebacterium (read-out: MIC); over 70 mg/mL in the test on MRSA (setting [8]). The MIC in test [1] (read-out: MIC) was 70 mg/mL (≈ 389 mM); with Pseudomonas aeruginosa (read-out: MIC), over 70 mg/mL. Besides, the “blood glucose level increase” value (in test [2] (setting [10]); in test [3] (setting [10]); with normal rats (SD rats) [5]) was “suppressed” in each case. The “AUC of blood glucose level” value in [2] (intraperitoneal, t-test) was “suppressive effect on the blood glucose level increase with a significant difference”; in [3] (t-test) it was “suppressive effect on the blood glucose level increase with a significant difference”; in the test on normal rats (SD rats) [4] (Tukey-Kramer test), “significant declining trend”. Moreover, the “blood glucose level increase (time course)” value in the test with normal rats (SD rats) [4] (fasted 24 hours, vs glucose-only solution) is “increase suppressive effect with a significant difference; also recorded: suppressed”.
